Laboratory results taken from article PMC4263135, “A general strategy for developing cell-permeable photo-modulatable organic fluorescent probes for live-cell super-resolution imaging” (Nature Communications, 2014).
Where a SMILES comes first, the peptide text is derived from it. Side-chain parts run from the residue outwards. [ ]: non-standard residue; d: D form. The star is where a group is joined. FITC = O=C1OC2(c3ccc(O)cc3Oc3cc(O)ccc32)c2ccc(NC(=S)*)cc21; Ahx = NCCCCCC(=O)O

Key:
live BSC-1 cells = assay: Intracellular distribution of probes by confocal microscopy (Trypan blue quench); format: cell-based, African green monkey (Cercopithecus aethiops); details: 37 °C
Procedure: For F-actin imaging, BSC-1 cells were seeded into cell culture dishes at a density of 1.5 × 10^4 per well in growth medium (MEM supplemented with 10% FBS, 200 μl). After an overnight incubation, the cells were washed with phosphate-buffered saline (PBS, pH 7.4) for three times. A solution of the indicated probe (15 μM, 200 μl) in PBS was then added, and the cells were incubated in a 5% CO2 atmosphere at 37 °C for the indicated (5, 10, 15 and 30 min) times as mentioned in the main text. The supernatant was then discarded, and a solution of Trypan blue (200 μl, 1 mg ml^−1) in PBS was added to quench the extracellular fluorescence of the probes that were bound to either the cell membrane or the dish surface. After 2 min, Trypan blue was removed, the cells were washed gently twice with PBS and immersed in growth medium prior to optical imaging.
The fluorescence signals were detected using a Fluoview FV1000 confocal laser scanning microscope (Olympus) equipped with a × 60/1.42 numerical aperture oil-immersion objective lens (FITC channel: excitation (EX) 488 nm, emission (EM) 510–530 nm; GFP channel: EX 488 nm, EM 508–532 nm; tdEosFP channel: EX 488 nm, EM 500–522 nm; RhB channel: EX 543 nm, EM 580–630 nm; FAM channel: EX 488 nm, EM 505–540 nm and LysoTracker Red channel: excitation (EX) 543 nm, emission (EM) 560–580 nm). All fluorescence images were analyzed with Image J software.

F-actin = details: cited from earlier work
Excerpt: The non-fluorescent PA-RhB fluorophore has been reported to be switched on by ultraviolet light, to be thermally reverted to a dark state, and to be excited by 560-nm laser light, emitting optimally at 600 nm in fixed cells. However, it is unknown whether the live-cell environment changes the properties of PA-RhB and whether the PA-RhB fluorophore can be used for live-cell super-resolution imaging.

Compound | intracellular distribution (live BSC-1 cells; 15 μM in PBS, 5 to 30 min, confocal fluorescence) | time to enter the live cells efficiently (live BSC-1 cells; cell uptake, probe 15 μM in PBS, Trypan blue quench of extracellular fluorescence) [min] | affinity for F-actin in live cells (F-actin)
CC[C@H](C)[C@H](NC(=O)[C@H](CC(C)C)NC(=O)[C@H](CC(=O)O)NC(=O)[C@H](C)NC(=O)[C@@H](NC(=O)CNC(=O)[C@@H](N)CCSC)C(C)C)C(=O)N[C@@H](CCCCN)C(=O)N[C@@H](CCCCN)C(=O)N[C@@H](Cc1ccccc1)C(=O)N[C@@H](CCC(=O)O)C(=O)N[C@@H](CO)C(=O)N[C@H](C(=O)N[C@@H](CO)C(=O)N[C@@H](CCCCN)C(=O)N[C@@H](CCC(=O)O)C(=O)N[C@@H](CCC(=O)O)C(=O)NCC(=O)NCC(=O)NCC(=O)NCC(=O)N[C@@H](CCCCNC(=O)CCCCCNC(=S)Nc1ccc2c(c1)C(=O)OC21c2ccc(O)cc2Oc2cc(O)ccc21)C(=O)NCC(=O)NCC(=O)N[C@H](CCCNC(=N)N)C(=O)N[C@@H](CCCNC(=N)N)C(=O)N[C@H](CCCNC(=N)N)C(=O)N[C@@H](CCCNC(=N)N)C(=O)N[C@H](CCCNC(=N)N)C(=O)N[C@@H](CCCNC(=N)N)C(=O)N[C@@H](CCCNC(=N)N)C(=O)N[C@@H](CCCNC(=N)N)C(=O)O)[C@@H](C)CC [probe 1] (H-MGVADLIKKFESISKEEGGGGK([Ahx-FITC])GG[dR]R[dR]R[dR]RRR-OH) | diffuse localization throughout the cytoplasm | ≤ 5 | 
MGVADLIKKFESISKEE [Lifeact] |  |  | low affinity
